According to patent US20240336654A1, “ANTIMICROBIAL PEPTIDOMIMETICS” (SPEXIS AG, priority 2021, published 2024):
Where a SMILES comes first, the peptide text is derived from it. Bridges are numbered along the chain shown (N, C = ends). [ ]: non-standard residue; d: D form. Hyp = O=C(O)[C@@H]1C[C@@H](O)CN1; Cit = NC(=O)NCCC[C@H](N)C(=O)O; Agb = N=C(N)NCC[C@H](N)C(=O)O; Pen = CC(C)(S)[C@H](N)C(=O)O; dDab = NCC[C@@H](N)C(=O)O; Dab = NCC[C@H](N)C(=O)O

Legend:
Format in all cases: cell-based
[1] = test system: Escherichia coli MCR-1 Af 45; settings: MCR-1 Af 45
Procedure, shortened: (§1)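 CLSI broth microdilution, slightly modified: cation-adjusted Mueller-Hinton II broth with about 5×10^5 CFU/mL from a 0.5 McFarland suspension, and two-fold serial peptide dilutions with Polysorbate 80 at 0.002% final. MIC (μg/mL) was the lowest concentration with no visible growth after 18-20 hours at 35° C.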

[2] = test system: Klebsiella pneumoniae SSI3010; settings: SSI3010
Procedure, shortened: as §1

[3] = test system: Escherichia coli ATCC 25922; settings: ATCC 25922
Procedure, shortened: as §1

[4] = test system: human red blood cells (hRBC); settings: red cells of human, 1 h, 200 μg/mL
Procedure, shortened: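 Peptides at 200 μg/mL incubated 1 h at 37 °C with 20% (v/v) washed human RBC, shaking. Hemolysis from supernatant OD540, expressed as percent of 2.5% Triton X-100 lysis, with PBS as 0%.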

Escherichia coli MCR-1 Af45 MIC [1] | Klebsiella pneumoniae SSI3010 MIC [2] | Escherichia coli ATCC 25922 MIC [3] | SMILES | Hemolysis at 0.2 g/L [4]
0.25 µg/mL | 0.5 µg/mL | 0.5 µg/mL | CC[C@H](C)[C@H](NC(=O)[C@@H]1C[C@@H](O)CN1C(=O)[C@@H](N)C(C)C)C(=O)N[C@@H]1C(=O)N[C@@H](Cc2ccc(O)cc2)C(=O)N[C@@H](CO)C(=O)N[C@@H](CC(=O)O)C(=O)N[C@@H](CCCNC(=N)N)C(=O)N[C@@H](CCN)C(=O)N[C@@H]([C@@H](C)O)C(=O)N[C@H](CCN)C(=O)N[C@@H](CCCCN)C(=O)N[C@@H](CCN)C(=O)N[C@@H](CCN)C(=O)N[C@H](C(=O)N[C@@H](Cc2ccc(O)cc2)C(=O)O)CSSC1(C)C [Example 23, Val-Hyp-Ile-Pen-Tyr-Ser-Asp-Arg-Dab-Thr-^DDab-Lys-Dab-Dab-Cys-Tyr] (H-V[Hyp]I[Pen]YSDR[Dab]T[dDab]K[Dab][Dab]CY-OH; disulfide 4-15; N-terminus assumed) | <1%
0.125 µg/mL | 0.25 µg/mL | 0.125 µg/mL | CC[C@H](C)[C@H](NC(=O)[C@@H]1C[C@@H](O)CN1C(=O)[C@@H](N)C(C)C)C(=O)N[C@@H]1C(=O)N[C@@H](Cc2ccc(O)cc2)C(=O)N[C@@H](CO)C(=O)N[C@@H](CO)C(=O)N[C@@H](CCCNC(=N)N)C(=O)N[C@@H](CCN)C(=O)N[C@@H]([C@@H](C)O)C(=O)N[C@H](CCN)C(=O)N[C@@H](CCCCN)C(=O)N[C@@H](CCN)C(=O)N[C@@H](CCN)C(=O)N[C@H](C(=O)N[C@@H](Cc2ccc(O)cc2)C(=O)O)CSSC1(C)C [Example 24, Val-Hyp-Ile-Pen-Tyr-Ser-Ser-Arg-Dab-Thr-^DDab-Lys-Dab-Dab-Cys-Tyr] (H-V[Hyp]I[Pen]YSSR[Dab]T[dDab]K[Dab][Dab]CY-OH; disulfide 4-15) | <1%
0.5 µg/mL | 1 µg/mL | 0.5 µg/mL | CC[C@H](C)[C@H](NC(=O)[C@@H]1C[C@@H](O)CN1C(=O)[C@@H](N)C(C)C)C(=O)N[C@@H]1C(=O)N[C@@H](Cc2ccc(O)cc2)C(=O)N[C@@H](CO)C(=O)N[C@@H](CC(N)=O)C(=O)N[C@@H](CCCNC(=N)N)C(=O)N[C@@H](C)C(=O)N[C@@H]([C@@H](C)O)C(=O)N[C@H](CCN)C(=O)N[C@@H](CCCCN)C(=O)N[C@@H](CCN)C(=O)N[C@@H](CCN)C(=O)N[C@H](C(=O)N[C@@H](Cc2ccc(O)cc2)C(=O)O)CSSC1(C)C [Example 25, Val-Hyp-Ile-Pen-Tyr-Ser-Asn-Arg-Ala-Thr-^DDab-Lys-Dab-Dab-Cys-Tyr] (H-V[Hyp]I[Pen]YSNRAT[dDab]K[Dab][Dab]CY-OH; disulfide 4-15) | <1%
0.125 µg/mL | 0.5 µg/mL | 0.25 µg/mL | CC[C@H](C)[C@H](NC(=O)[C@@H]1C[C@@H](O)CN1C(=O)[C@@H](N)C(C)C)C(=O)N[C@@H]1C(=O)N[C@@H](Cc2ccc(O)cc2)C(=O)N[C@@H](CO)C(=O)N[C@@H](CC(N)=O)C(=O)N[C@@H](CCCNC(=N)N)C(=O)N[C@H](CCN)C(=O)N[C@@H]([C@@H](C)O)C(=O)N[C@H](CCN)C(=O)N[C@@H](CCCCN)C(=O)N[C@@H](CCN)C(=O)N[C@@H](CCN)C(=O)N[C@H](C(=O)N[C@@H](Cc2ccc(O)cc2)C(=O)O)CSSC1(C)C [Example 26, Val-Hyp-Ile-Pen-Tyr-Ser-Asn-Arg-^DDab-Thr-^DDab-Lys-Dab-Dab-Cys-Tyr] (H-V[Hyp]I[Pen]YSNR[dDab]T[dDab]K[Dab][Dab]CY-OH; disulfide 4-15) | <1%
0.25 µg/mL | 0.5 µg/mL | 0.25 µg/mL | CC[C@H](C)[C@H](NC(=O)[C@@H]1C[C@@H](O)CN1C(=O)[C@@H](N)C(C)C)C(=O)N[C@@H]1C(=O)N[C@@H](Cc2ccc(O)cc2)C(=O)N[C@@H](CO)C(=O)N[C@@H](CC(N)=O)C(=O)N[C@@H](CCCNC(=N)N)C(=O)N[C@@H](CCCNC(N)=O)C(=O)N[C@@H]([C@@H](C)O)C(=O)N[C@H](CCN)C(=O)N[C@@H](CCCCN)C(=O)N[C@@H](CCN)C(=O)N[C@@H](CCN)C(=O)N[C@H](C(=O)N[C@@H](Cc2ccc(O)cc2)C(=O)O)CSSC1(C)C [Example 27, Val-Hyp-Ile-Pen-Tyr-Ser-Asn-Arg-Cit-Thr-^DDab-Lys-Dab-Dab-Cys-Tyr] (H-V[Hyp]I[Pen]YSNR[Cit]T[dDab]K[Dab][Dab]CY-OH; disulfide 4-15) | <1%
0.25 µg/mL | 0.5 µg/mL | 0.25 µg/mL | CC[C@H](C)[C@H](NC(=O)[C@@H]1C[C@@H](O)CN1C(=O)[C@@H](N)C(C)C)C(=O)N[C@@H]1C(=O)N[C@@H](Cc2ccc(O)cc2)C(=O)N[C@@H](CO)C(=O)N[C@@H](CC(N)=O)C(=O)N[C@@H](CCCNC(=N)N)C(=O)N[C@@H](CC(N)=O)C(=O)N[C@@H]([C@@H](C)O)C(=O)N[C@H](CCN)C(=O)N[C@@H](CCCCN)C(=O)N[C@@H](CCN)C(=O)N[C@@H](CCN)C(=O)N[C@H](C(=O)N[C@@H](Cc2ccc(O)cc2)C(=O)O)CSSC1(C)C [Example 28, Val-Hyp-Ile-Pen-Tyr-Ser-Asn-Arg-Asn-Thr-^DDab-Lys-Dab-Dab-Cys-Tyr] (H-V[Hyp]I[Pen]YSNRNT[dDab]K[Dab][Dab]CY-OH; disulfide 4-15) | <1%
0.125 µg/mL | 0.5 µg/mL | 0.25 µg/mL | CC[C@H](C)[C@H](NC(=O)[C@@H]1C[C@@H](O)CN1C(=O)[C@@H](N)C(C)C)C(=O)N[C@@H]1C(=O)N[C@@H](Cc2ccc(O)cc2)C(=O)N[C@@H](CO)C(=O)N[C@@H](CC(N)=O)C(=O)N[C@@H](CCCNC(=N)N)C(=O)N[C@@H](CO)C(=O)N[C@@H]([C@@H](C)O)C(=O)N[C@H](CCN)C(=O)N[C@@H](CCCCN)C(=O)N[C@@H](CCN)C(=O)N[C@@H](CCN)C(=O)N[C@H](C(=O)N[C@@H](Cc2ccc(O)cc2)C(=O)O)CSSC1(C)C [Example 29, Val-Hyp-Ile-Pen-Tyr-Ser-Asn-Arg-Ser-Thr-^DDab-Lys-Dab-Dab-Cys-Tyr] (H-V[Hyp]I[Pen]YSNRST[dDab]K[Dab][Dab]CY-OH; disulfide 4-15) | <1%
0.0625 µg/mL | 0.125 µg/mL | 0.125 µg/mL | CC[C@H](C)[C@H](NC(=O)[C@@H]1C[C@@H](O)CN1C(=O)[C@@H](N)C(C)C)C(=O)N[C@@H]1C(=O)N[C@@H](Cc2ccc(O)cc2)C(=O)N[C@@H](CO)C(=O)N[C@@H](CC(N)=O)C(=O)N[C@@H](CCCNC(=N)N)C(=O)N[C@@H](CCNC(=N)N)C(=O)N[C@@H]([C@@H](C)O)C(=O)N[C@H](CCN)C(=O)N[C@@H](CCCCN)C(=O)N[C@@H](CCN)C(=O)N[C@@H](CCN)C(=O)N[C@H](C(=O)N[C@@H](Cc2ccc(O)cc2)C(=O)O)CSSC1(C)C [Example 30, Val-Hyp-Ile-Pen-Tyr-Ser-Asn-Arg-Agb-Thr-^DDab-Lys-Dab-Dab-Cys-Tyr] (H-V[Hyp]I[Pen]YSNR[Agb]T[dDab]K[Dab][Dab]CY-OH; disulfide 4-15) | <1%
